According to patent US4734406A, “3-pyridylmethylnaphthyl derivatives and composition containing them useful to inhibit thromboxane synthetase” (priority 1985, dated 1988):
Where a name gives a salt, the structure may show the parent alone.

Columns and labels:
human platelets = experiment: Inhibition of the arachidonic acid-induced aggregation of human platelets in vitro; assay type: cell-based; conditions: Platelet, PRP, 10 min preincubation at 37° C., 2×10^-4 M arachidonic acid
Experimental: 1. Inhibition of the arachidonic acid-induced aggregation of human platelets in vitro.
The platelet aggregation is followed optically by measurement of the transmission of light in a Born aggregometer. The total volume of the test mix is 0.25 ml. The preincubation time at 37° C. with the test product is 10 min, and aggregation is then induced with 2×10^-4 M arachidonic acid. The test product is, as a rule, tested in five different concentrations in the PRP from three different donors. Dose-effect curves are drawn from the maximal aggregation amplitudes in each case, and the IC50 values are determined graphically. […] The measurements are carried out in the period 1-6 hours after blood sampling.

[1] = tested on: TXA2 release in platelet-rich human plasma; experiment: Thrombin-induced TXA2 release in platelet-rich human plasma in vitro (TXB2 radioimmunoassay); assay type: cell-based; conditions: 0.5 h, relative TXB2 content, without test substance = 100%, 0.5 U thrombin + 7.2×10^-7 M arachidonic acid; for activity at 1 µM: 10^-6 mol/l test substance; for activity at 0.1 µM: 10^-7 mol/l test substance
Experimental: 2. Thrombin-induced TXA2 release in platelet-rich human plasma in vitro Blood is taken, by careful cannulation of the antecubital vein, from apparently healthy male and female volunteers, who have taken no medicaments in the preceding 10-day period, and is immediately stabilized with sodium citrate (ad. 0.38%). Platelet-rich plasma (PRP) is obtained in the supernatant by centrifugation at 140×g for 15 minutes, and the platelet content of this should be in the range 2.5-3.5×10^8 /ml. […] This is stopped in an ice bath and, after addition of tracer and TXB2 -specific antibodies (NEN, Dreieich), the TXB2 content is determined radioimmunologically (TXA2 is unstable under the experimental conditions and thus cannot be measured. The stable hydrolysis product TXB2 is measured in its place). The measured variable is the relative TXB2 content in the platelet incubations from two or three different donors with and without (=100%) the test substance.

Laser-induced thrombosis = experiment: Inhibition of Laser-induced thrombosis; assay type: in vivo, Sprague-Dawley rats; conditions: 10 mg/kg p.o., one hour before start; mesentery arterioles, rat
Experimental: 3. Inhibition of Laser-induced thrombosis
The investigations of the compounds according to the invention in the model of Laser-induced thrombosis are carried out on male or female Sprague-Dawley rats with a body weight of about 200 g. The animals to be investigated are premedicated s.c. with 0.1 mg of atropine sulfate in solution, and anesthetized i.p. with 100 mg of ketamine hydrochloride and 4 mg of xylazine per kg of body weight. Arterioles from the mesentry, with a diameter of 12-25 μm, are used for the investigation. During the measurement, the exposed mesentry is hyperfused with warmed physiological NaCl (37° C.) or is covered with degassed liquid paraffin. The beam of a 4 W argon laser (supplied by Spectra Physics, Darmstadt, FRG) is introduced coaxially into the inverted ray path of a microscope (ICM 405, LD-Epilan 40/0.60; supplied by Zeiss, Oberkochen, FRG) by means of a ray adaptation and adjustment system (supplied by BIG, Munich, FRG). […]
The number of shots needed to induce a defined thrombus was counted. The frequency of the laser flashes was one lesion every 2 minutes, all the thrombi with a minimum size of 1/4 of the vessel radius which were formed during the observation period being counted and measured. The results of the experiment were statistically analyzed using the x^2 test (L. Cavalli-Sforza, Biometrie, Stuttgart, 1969, pages 49 et seq.).

SMILES | IC50 (human platelets) | activity at 1 µM [1] | activity at 0.1 µM [1] | Number of laser shots to form a thrombus (compared with control) (Laser-induced thrombosis)
Cc1ccncc1C(O)c1ccc2cc(C(=O)O)ccc2c1.Cl (stereo not shown) [Example 8, 6-[1-Hydroxy-1-(4-methyl-3-pyridyl)methyl]-2-naphthoic acid hydrochloride] | 6.3 µM | 13% | 88% | +56%
O=C(O)c1ccc2cc(C(O)c3cccnc3)ccc2c1 (stereo not shown) [Example 9, hydrochloride of 6-[1-hydroxy-1-(3-pyridyl)methyl]-2-naphthoic acid] | 1.7 µM | 21% | 64% | 
